According to paper PMC12775434, “Ultra-large virtual screening unveils potent agonists of the neuromodulatory orphan receptor GPR139” (Nature Communications, 2025):
“And” between values parts separate entries of the source, which are not always exact repeats. Equal values may be shown once. Each block holds one compound with its values, some of them ahead of it.

Tests used:
Assay type in all cases: cell-based
[1] = molecular target: T1, GPR139 (Homo sapiens, UniProt Q6DWJ6); assay: Ca2+ mobilization assay, agonist mode, stable GPR139-CHOk1 cell line; conditions: for EC50 / Emax: Supplementary Table 2, mean ± SEM; for EC50: read-out: pEC50 Ca2+ (converted); for Emax: normalized to Lundbeck Cmp 1a, read-out: Emax (%) Ca2+
T1 sequence (Q6DWJ6 1-353): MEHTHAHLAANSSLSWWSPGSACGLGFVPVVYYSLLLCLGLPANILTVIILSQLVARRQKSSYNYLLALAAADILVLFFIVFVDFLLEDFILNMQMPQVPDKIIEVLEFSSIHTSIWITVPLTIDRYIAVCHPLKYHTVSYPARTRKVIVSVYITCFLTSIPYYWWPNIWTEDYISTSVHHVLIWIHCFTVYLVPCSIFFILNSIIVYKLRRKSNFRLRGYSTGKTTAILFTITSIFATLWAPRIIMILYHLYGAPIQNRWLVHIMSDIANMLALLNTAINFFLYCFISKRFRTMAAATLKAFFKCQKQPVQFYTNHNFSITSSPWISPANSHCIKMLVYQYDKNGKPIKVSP
Outline: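 Agonist activity of compounds is assessed in stably transfected CHO-K1 cells using the calcium dye Fluo-4 at 37 °C in HEPES-buffered HBSS (pH 7.4). Efficacy is expressed relative to the reference agonist Lundbeck Cmp 1a, set as 100%.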

[2] = molecular target: T1, GPR139; assay: Ca2+ mobilization assay, antagonist mode (EC80 800 nM Lundbeck Cmp 1a after 20 min preincubation), GPR139-CHOk1; conditions: individual replicates (Supplementary Figure 4)
Outline: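 Fluo-4-loaded GPR139-CHOk1 cells in HEPES-buffered HBSS (pH 7.4, 2.5 mM probenecid) given test compounds at 10 µM, then after 20 min challenged with 800 nM Lundbeck Cmp 1a (EC80). Calcium fluorescence read at 37 °C, 485/525 nm.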

[3] = molecular target: T2, human muscarinic acetylcholine M1 receptor (M1R) (Homo sapiens, UniProt P11229); assay: Ca2+ mobilization counter-screen in M1R-CHOk1 cells; conditions: individual replicates (Supplementary Figure 5)
T2 sequence (P11229 1-460): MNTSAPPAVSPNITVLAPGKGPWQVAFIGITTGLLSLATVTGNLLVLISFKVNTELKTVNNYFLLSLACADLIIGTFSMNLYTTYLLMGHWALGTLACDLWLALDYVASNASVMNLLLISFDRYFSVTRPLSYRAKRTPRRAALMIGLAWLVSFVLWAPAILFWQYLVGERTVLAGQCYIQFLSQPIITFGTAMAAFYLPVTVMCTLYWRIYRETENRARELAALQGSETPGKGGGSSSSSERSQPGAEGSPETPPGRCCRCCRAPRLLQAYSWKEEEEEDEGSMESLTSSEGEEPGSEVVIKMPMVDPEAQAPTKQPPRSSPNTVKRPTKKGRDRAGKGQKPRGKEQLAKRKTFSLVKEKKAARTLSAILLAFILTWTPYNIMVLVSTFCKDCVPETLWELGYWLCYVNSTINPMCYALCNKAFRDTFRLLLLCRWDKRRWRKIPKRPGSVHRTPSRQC
Outline: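 M1R-CHOk1 cells seeded at 30,000/well for 20–24 h were loaded with 2 µM Fluo-4 AM for 1 h at 37 °C in HEPES-buffered HBSS (pH 7.4, 2.5 mM probenecid). Compounds were added after baseline reads, with DMSO at most 0.3% final. Calcium mobilization was read at 37 °C, excitation 485/emission 525 nm.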

[4] = Agonist mode, individual replicates (Supplementary Figure 4)
[5] = log [Compound] M = -4.5, individual replicate columns
[6] = log [Compound] M = -5.0, individual replicate columns
[7] = log [Compound] M = -5.5, individual replicate columns
[8] = log [Compound] M = -6.0, individual replicate columns
[9] = log [Compound] M = -6.5, individual replicate columns
[10] = log [Compound] M = -7.0, individual replicate columns
[11] = log [Compound] M = -7.5, individual replicate columns
[12] = log [Compound] M = -8.0, individual replicate columns
[13] = log [Compound] M = -8.5, individual replicate columns
[14] = log [Compound] M = -9.0, individual replicate columns

fold decrease in potency relative to a similar phenyl substituted compound (1.3) ([1]; Ca2+ mobilization EC50): 4- to 16 fold
EC50 [1]: 1.58 µM
Emax [1]: 91 ± 4%
Compound: Cc1cncc(-c2nc(CC(=O)NC(C)c3ccccc3)no2)c1 (stereo not shown) [Compound 1.24, CC(C1=CC=CC=C1)NC(CC2=NOC(C3=CC(C)=CN=C3)=N2)=O]
Ca2+ signal (% of Cmp 1a) [1, 4]: 83 % of Cmp 1a and 52 % of Cmp 1a and 78 % of Cmp 1a
Ca2+ signal (% of Cmp 1a) [1, 5]: 103 % of Cmp 1a and 95 % of Cmp 1a and 70 % of Cmp 1a and 88 % of Cmp 1a and 90 % of Cmp 1a
Ca2+ signal (% of Cmp 1a) [1, 6]: 68 % of Cmp 1a and 86 % of Cmp 1a and 73 % of Cmp 1a and 72 % of Cmp 1a and 97 % of Cmp 1a
Ca2+ signal (% of Cmp 1a) [1, 7]: 50 % of Cmp 1a and 66 % of Cmp 1a and 58 % of Cmp 1a and 47 % of Cmp 1a and 97 % of Cmp 1a
Ca2+ signal (% of Cmp 1a) [1, 8]: 24 % of Cmp 1a and 41 % of Cmp 1a and 39 % of Cmp 1a and 38 % of Cmp 1a and 62 % of Cmp 1a
Ca2+ signal (% of Cmp 1a) [1, 9]: 1.31 % of Cmp 1a and 19 % of Cmp 1a and 31 % of Cmp 1a and 8.44 % of Cmp 1a and 34 % of Cmp 1a
Ca2+ signal (% of Cmp 1a) [1, 10]: 2.29 % of Cmp 1a and 0.399 % of Cmp 1a and 4 % of Cmp 1a and 2 % of Cmp 1a and 17 % of Cmp 1a
Ca2+ signal (% of Cmp 1a) [1, 11]: -0.0494 % of Cmp 1a and 2.8 % of Cmp 1a and -5.43 % of Cmp 1a and 8 % of Cmp 1a and 5.52 % of Cmp 1a
Ca2+ signal (% of Cmp 1a) [1, 12]: -0.83 % of Cmp 1a and 7.38 % of Cmp 1a and -0.358 % of Cmp 1a and 15 % of Cmp 1a and 4 % of Cmp 1a
Ca2+ signal (% of Cmp 1a) [1, 13]: 3.55 % of Cmp 1a and 3 % of Cmp 1a and -1.51 % of Cmp 1a and 6 % of Cmp 1a and 3.35 % of Cmp 1a
Ca2+ signal (% of Cmp 1a) [1, 14]: 2 % of Cmp 1a and 1.41 % of Cmp 1a and 6 % of Cmp 1a and 4 % of Cmp 1a and 3 % of Cmp 1a
Ca2+ signal (% of Cmp 1a) [2]: 5.33 % of Cmp 1a and 17 % of Cmp 1a and -8 % of Cmp 1a
Ca2+ signal (% of Carbachol) [3]: -0.598 % of Carbachol and 5 % of Carbachol and 4.73 % of Carbachol

EC50 [1]: 2 µM
Emax [1]: 97 ± 3%
Compound: Cc1ncc(-c2nc(CC(=O)NC(C)c3ccccc3)no2)o1 (stereo not shown) [Compound 1.25, CC(C1=CC=CC=C1)NC(CC2=NOC(C3=CN=C(O3)C)=N2)=O]
Ca2+ signal (% of Cmp 1a) [1, 4]: 86 % of Cmp 1a and 76 % of Cmp 1a and 90 % of Cmp 1a
Ca2+ signal (% of Cmp 1a) [1, 5]: 107 % of Cmp 1a and 102 % of Cmp 1a and 85 % of Cmp 1a and 96 % of Cmp 1a and 104 % of Cmp 1a
Ca2+ signal (% of Cmp 1a) [1, 6]: 92 % of Cmp 1a (2×) and 95 % of Cmp 1a and 77 % of Cmp 1a and 93 % of Cmp 1a
Ca2+ signal (% of Cmp 1a) [1, 7]: 62 % of Cmp 1a and 74 % of Cmp 1a and 52 % of Cmp 1a and 93 % of Cmp 1a and 64 % of Cmp 1a
Ca2+ signal (% of Cmp 1a) [1, 8]: 43 % of Cmp 1a and 38 % of Cmp 1a and 31 % of Cmp 1a and 47 % of Cmp 1a and 36 % of Cmp 1a
Ca2+ signal (% of Cmp 1a) [1, 9]: 17 % of Cmp 1a and 13 % of Cmp 1a and 4.22 % of Cmp 1a and 19 % of Cmp 1a and 9 % of Cmp 1a
Ca2+ signal (% of Cmp 1a) [1, 10]: 7 % of Cmp 1a and 2.6 % of Cmp 1a and -3 % of Cmp 1a and 12 % of Cmp 1a and 3.24 % of Cmp 1a
Ca2+ signal (% of Cmp 1a) [1, 11]: 10 % of Cmp 1a and 2.43 % of Cmp 1a and 2 % of Cmp 1a and 1.64 % of Cmp 1a and 4 % of Cmp 1a
Ca2+ signal (% of Cmp 1a) [1, 12]: 3 % of Cmp 1a and 6 % of Cmp 1a (2×) and 5 % of Cmp 1a and 4.25 % of Cmp 1a
Ca2+ signal (% of Cmp 1a) [1, 13]: -0.76 % of Cmp 1a and -1.77 % of Cmp 1a and 0.877 % of Cmp 1a and 5.4 % of Cmp 1a and 0.153 % of Cmp 1a
Ca2+ signal (% of Cmp 1a) [1, 14]: 0.813 % of Cmp 1a and 0.273 % of Cmp 1a and -1 % of Cmp 1a and 1 % of Cmp 1a and 2.54 % of Cmp 1a
Ca2+ signal (% of Cmp 1a) [2]: 3 % of Cmp 1a and 15 % of Cmp 1a and 5.33 % of Cmp 1a
Ca2+ signal (% of Carbachol) [3]: 5.35 % of Carbachol and 0.226 % of Carbachol and -1.63 % of Carbachol

EC50 [1]: 2 µM
Emax [1]: 94 ± 9%
Ca2+ signal (% of Cmp 1a) [1, 12]: -9 % of Cmp 1a (2×) and 6.33 % of Cmp 1a
Compound: COc1ccc(-c2nc(CC(=O)NC(C)c3ccccc3)no2)cn1 (stereo not shown) [Compound 1.26, COC1=NC=C(C2=NC(CC(NC(C3=CC=CC=C3)C)=O)=NO2)C=C1]
Ca2+ signal (% of Cmp 1a) [1, 4]: 85 % of Cmp 1a and 87 % of Cmp 1a and 69 % of Cmp 1a
Ca2+ signal (% of Cmp 1a) [1, 5]: 87 % of Cmp 1a and 80 % of Cmp 1a and 98 % of Cmp 1a
Ca2+ signal (% of Cmp 1a) [1, 6]: 81 % of Cmp 1a and 61 % of Cmp 1a and 119 % of Cmp 1a
Ca2+ signal (% of Cmp 1a) [1, 7]: 56 % of Cmp 1a and 44 % of Cmp 1a and 97 % of Cmp 1a
Ca2+ signal (% of Cmp 1a) [1, 8]: 34 % of Cmp 1a and 6.33 % of Cmp 1a and 46 % of Cmp 1a
Ca2+ signal (% of Cmp 1a) [1, 9]: 12 % of Cmp 1a and -9 % of Cmp 1a and 7 % of Cmp 1a
Ca2+ signal (% of Cmp 1a) [1, 10]: 8 % of Cmp 1a and 3 % of Cmp 1a and 10 % of Cmp 1a
Ca2+ signal (% of Cmp 1a) [1, 11]: 2.67 % of Cmp 1a and 0 % of Cmp 1a and -4.67 % of Cmp 1a
Ca2+ signal (% of Cmp 1a) [1, 13]: 1 % of Cmp 1a and -7 % of Cmp 1a and 3.33 % of Cmp 1a
Ca2+ signal (% of Cmp 1a) [1, 14]: -3.33 % of Cmp 1a and -8 % of Cmp 1a and 15 % of Cmp 1a
Ca2+ signal (% of Cmp 1a) [2]: 29 % of Cmp 1a and 2 % of Cmp 1a and 52 % of Cmp 1a
Ca2+ signal (% of Carbachol) [3]: -15 % of Carbachol and -8 % of Carbachol and 11 % of Carbachol
